Experiment: Single-dose intravenous and oral pharmacokinetic study in mice
Format: in vivo, Balb/c mice
Conditions: mouse; male Balb/c mice, PO 50 mg/kg, plasma
Protocol: Twenty-seven male Balb/c mice were randomly divided into 3 groups, 9 mice in each group. Group 1: mice received an intravenous (IV) dose of Compound 1 at 5 mg/kg with a dosing volume of 5 mL/kg. Blood samples were collected at 0.083, 0.25, 0.5, 1, 2, 4, 6, 8, and 24 hours post-dose using a staggered sampling method. Group 2: mice received an oral (gavage) dose of Compound 1 at 50 mg/kg with a dosing volume of 10 mL/kg. Blood samples were collected at 0.25, 0.5, 1, 2, 4, 6, 8, and 24 hours post-dose using a staggered sampling method. Group 3: mice received an oral (gavage) dose of palbociclib at 50 mg/kg with a dosing volume of 10 mL/kg. Blood samples were collected at 1, 3, 4, 6, 8, 10, 12, and 24 hours post-dose using a staggered sampling method. For each group, 3 samples were collected at each time point. Plasma was separated by centrifugation and stored at −70° C. The concentrations of Compound 1 or palbociclib in plasma were measured using LC-MS/MS.

CC(=O)c1c(C)c2cnc(Nc3ccc(N4CCNCC4)cn3)nc2n(C2CCCC2)c1=O [palbociclib, reference compound]
AUC(0-t): 18300 ng·h/mL | Cmax: 1320 ng/mL | Tmax: 8 h | half-life: 7.64 h

Reference: US20260207604A1, “COMPOUND AND USE THEREOF” (ONQUALITY PHARMACEUTICALS CHINA LTD., priority 2022, published 2026)
